Assay results reported in PubChem BioAssay (NCI).
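In this assay, cells in 96-well plates receive the compound at five concentrations for 48 hours. Endpoints are linearly interpolated between the surrounding concentrations. GI50 marks 50% less growth. TGI: total growth inhibition.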

Experiments:
Assay in all cases: inhibition of tumour cell growth, NCI panel, 48 h; in the data active = GI50 below about 0.43 µM; inactive = the rest
[1] = test system: HL-60(TB) leukemia
[2] = test system: CCRF-CEM leukemia
[3] = test system: MCF7 breast
[4] = test system: OVCAR-5 ovarian
[5] = test system: SNB-75 CNS
[6] = test system: NCI-H226 lung
[7] = test system: OVCAR-8 ovarian
[8] = test system: HOP-92 NSCLC
[9] = test system: IGROV1 ovarian
[10] = test system: HCT-15 colon
[11] = test system: OVCAR-3 ovarian
[12] = test system: HT29 colon
[13] = test system: T-47D breast
[14] = test system: PC-3 prostate
[15] = test system: K-562 leukemia
[16] = test system: ACHN renal
[17] = test system: NCI-H522 lung
[18] = test system: NCI/ADR-RES ovarian
[19] = test system: LOX IMVI melanoma
[20] = test system: SR leukemia
[21] = test system: A498 renal
[22] = test system: SNB-19 CNS
[23] = test system: MALME-3M melanoma
[24] = test system: 786-0 renal
[25] = test system: SK-MEL-5 melanoma
[26] = test system: SF-539 CNS
[27] = test system: HS 578T breast
[28] = test system: HOP-62 NSCLC
[29] = test system: NCI-H23 lung
[30] = test system: TK-10 renal
[31] = test system: KM12 colon
[32] = test system: SF-295 CNS
[33] = test system: SK-MEL-2 melanoma
[34] = test system: SK-MEL-28 melanoma
[35] = test system: MDA-MB-435
[36] = test system: BT-549 breast
[37] = test system: COLO 205 colon
[38] = test system: UACC-62 melanoma
[39] = test system: SN12C renal
[40] = test system: MOLT-4 leukemia
[41] = test system: SW-620 colon
[42] = test system: CAKI-1 renal
[43] = test system: SK-OV-3 ovarian
[44] = test system: SF-268 CNS
[45] = test system: A549 NSCLC
[46] = test system: RPMI-8226 leukemia
[47] = test system: UACC-257 melanoma
[48] = test system: U251 CNS
[49] = test system: HCC-2998 colon
[50] = test system: HCT-116 colon
[51] = test system: DU-145 prostate
[52] = test system: OVCAR-4 ovarian
[53] = test system: UO-31 renal
[54] = test system: M14 melanoma
[55] = test system: RXF 393 renal
[56] = test system: NCI-H460 lung
[57] = test system: MDA-MB-231 breast

CCOC(=O)Nc1nc2cc(OC)c(OC)c(OC)c2s1
64.6 µM: TGI [5]
inactive: GI50 [1] > 100 µM | GI50 [2] > 100 µM | GI50 [3] > 100 µM | GI50 [4] > 100 µM | GI50 [5] 16.9 µM | GI50 [6] 73.7 µM | GI50 [7] > 100 µM | GI50 [8] 15.8 µM | GI50 [9] 91 µM | GI50 [10] > 100 µM | GI50 [11] 51.5 µM | GI50 [12] > 100 µM | GI50 [13] > 100 µM | GI50 [14] > 100 µM | GI50 [15] > 100 µM | GI50 [16] 46.9 µM | GI50 [17] > 100 µM | GI50 [18] > 100 µM | GI50 [19] > 100 µM | GI50 [20] > 100 µM | GI50 [21] 26.2 µM | GI50 [22] > 100 µM | GI50 [23] > 100 µM | GI50 [24] 61.2 µM | GI50 [25] > 100 µM | GI50 [26] > 100 µM | GI50 [27] 17.5 µM | GI50 [28] 24.9 µM | GI50 [29] 28.5 µM | GI50 [30] 42.4 µM | GI50 [31] > 100 µM | GI50 [32] 41.4 µM | GI50 [33] 62.6 µM | GI50 [34] > 100 µM | GI50 [35] > 100 µM | GI50 [36] > 100 µM | GI50 [37] > 100 µM | GI50 [38] > 100 µM | GI50 [39] > 100 µM | GI50 [40] > 100 µM | GI50 [41] > 100 µM | GI50 [42] > 100 µM | GI50 [43] 66.5 µM | GI50 [44] 50.4 µM | GI50 [45] > 100 µM | GI50 [46] > 100 µM | GI50 [47] > 100 µM | GI50 [48] 38.7 µM | GI50 [49] > 100 µM | GI50 [50] > 100 µM | GI50 [51] > 100 µM | GI50 [52] > 100 µM | GI50 [53] 13.9 µM | GI50 [54] > 100 µM | GI50 [55] 49.4 µM | GI50 [56] > 100 µM | GI50 [57] 31.5 µM
> 100 µM: TGI [1] | TGI [2] | TGI [3] | TGI [4] | TGI [6] | TGI [7] | TGI [9] | TGI [10] | TGI [11] | TGI [12] | TGI [13] | TGI [14] | TGI [15] | TGI [16] | TGI [17] | TGI [18] | TGI [19] | TGI [20] | TGI [21] | TGI [22] | TGI [23] | TGI [24] | TGI [25] | TGI [26] | TGI [27] | TGI [29] | TGI [30] | TGI [31] | TGI [32] | TGI [33] | TGI [34] | TGI [35] | TGI [36] | TGI [37] | TGI [38] | TGI [39] | TGI [40] | TGI [41] | TGI [42] | TGI [43] | TGI [44] | TGI [45] | TGI [46] | TGI [47] | TGI [48] | TGI [49] | TGI [50] | TGI [51] | TGI [52] | TGI [53] | TGI [54] | TGI [55] | TGI [56] | TGI [57]
95.6 µM: TGI [28]
74.9 µM: TGI [8]
